Test results published in publication PMC11904993, “Humanized Candida and NanoBiT Assays Expedite Discovery of Bdf1 Bromodomain Inhibitors With Antifungal Potential” (Advanced Science, 2025).
Several values for one entry are separate records, joined by “and”; a condition that tells them apart may be missing. Identical values can stand only once.

Columns and labels:
[1] = tested on: C. glabrata expressing humanized Bdf1 (Brd4 BDs); assay: Growth inhibition in liquid media, humanized C. glabrata strains; conditions: Fig 3D; 50 µM; humanized BDF1-flag; Exp 1-3
Procedure: (§1) Growth on Liquid Media with C. glabrata Lab Strains: Cells were grown at 30 °C in SC+M+C‐U medium (SC medium with 5 mM methionine, 0.25 mM cysteine, without uracil) to an OD600 of 0.5–0.8. […] Plates were incubated at 30 °C and OD600 was measured using a Multiskan FC Microplate Photometer (Thermo Fisher).

C. auris Bdf1 BD1 = C. auris Bdf1 BD1 (Candidozyma auris (Candida auris), UniProt A0AAW0VEM6); assay: HTRF assay, inhibition of H4ac4 peptide binding
CaBdf1 BD1 = target: T1, CaBdf1 BD1 (Candida albicans, UniProt Q5A4W8); assay: HTRF assay, inhibition of H4ac4 peptide binding; design: species or system C. albicans
T1 construct: BD1 (residues 193–327) and BD2 (residues 361–501) from CaBdf1 (Uniprot ID Q5A4W8); made in house; host or cells: E. coli BL21(DE3)

[2] = tested on: C. glabrata strains expressing WT and mutant Bdf1; assay: Growth inhibition in liquid media, C. glabrata lab strains; conditions: for pEC50 growth inhibition: Fig 2C; for % Growth (OD at 600 nm): Fig 2F
Procedure: as §1

C. auris Bdf1 BD1, sequence (A0AAW0VEM6 entry or part of it): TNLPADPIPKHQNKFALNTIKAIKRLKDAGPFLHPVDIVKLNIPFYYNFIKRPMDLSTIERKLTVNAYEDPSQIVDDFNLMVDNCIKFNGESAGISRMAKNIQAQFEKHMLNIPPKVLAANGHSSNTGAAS
T1 sequence (Q5A4W8 193-327): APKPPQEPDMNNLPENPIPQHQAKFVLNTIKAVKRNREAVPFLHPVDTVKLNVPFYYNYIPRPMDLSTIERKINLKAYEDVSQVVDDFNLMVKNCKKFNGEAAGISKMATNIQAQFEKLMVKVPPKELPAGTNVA

Cc1ccc(-c2nnc(C)c(NCc3ccc(C)o3)n2)cc1 [Compound 24c, 6‐methyl‐N‐((5‐methylfuran‐2‐yl)methyl)‐3‐(p‐tolyl)‐1,2,4‐triazin‐5‐amine]
%Growth [1]: 82.6% and 80.3% and 69.6% | remaining activity at 0.0021 µM (C. auris Bdf1 BD1; CauBD1, 24c 0.0021 microM, Exp1-3, read-out: Percent HTRF Signal): 100% | remaining activity at 0.0052 µM (C. auris Bdf1 BD1; CauBD1, 24c 0.0052 microM, Exp1-3, read-out: Percent HTRF Signal): 94.1% | remaining activity at 0.013 µM (C. auris Bdf1 BD1; CauBD1, 24c 0.013 microM, Exp1-3, read-out: Percent HTRF Signal): 99.7% | remaining activity at 0.033 µM (C. auris Bdf1 BD1; CauBD1, 24c 0.033 microM, Exp1-3, read-out: Percent HTRF Signal): 98.7% | remaining activity at 0.082 µM (C. auris Bdf1 BD1; CauBD1, 24c 0.082 microM, Exp1-3, read-out: Percent HTRF Signal): 99.6% | remaining activity at 0.2 µM (C. auris Bdf1 BD1; CauBD1, 24c 0.20 microM, Exp1-3, read-out: Percent HTRF Signal): 104% | remaining activity at […] (C. auris Bdf1 BD1; CauBD1, 24c 0.51 microM, Exp1-3, read-out: Percent HTRF Signal): 96.3% | remaining activity at 1.28 µM (C. auris Bdf1 BD1; CauBD1, 24c 1.28 microM, Exp1-3, read-out: Percent HTRF Signal): 91.7% | remaining activity at 3.2 µM (C. auris Bdf1 BD1; CauBD1, 24c 3.20 microM, Exp1-3, read-out: Percent HTRF Signal): 84.9% | remaining activity at 8 µM (C. auris Bdf1 BD1; CauBD1, 24c 8.00 microM, Exp1-3, read-out: Percent HTRF Signal): 83.4% | remaining activity at 20 µM (C. auris Bdf1 BD1; CauBD1, 24c 20.00 microM, Exp1-3, read-out: Percent HTRF Signal): 64.7% | inhibition of Bdf1 BD1 from C. auris (C. auris Bdf1 BD1; HTRF, Fig S9C): weakly inhibited | remaining activity at 0.013 µM (CaBdf1 BD1; CaBD1, 24c 0.013 microM, Exp1-2, read-out: Percent HTRF Signal): 94% | remaining activity at 0.033 µM (CaBdf1 BD1; CaBD1, 24c 0.033 microM, Exp1-2, read-out: Percent HTRF Signal): 100% | remaining activity at 0.082 µM (CaBdf1 BD1; CaBD1, 24c 0.082 microM, Exp1-2, read-out: Percent HTRF Signal): 99.6% | remaining activity at 0.2 µM (CaBdf1 BD1; CaBD1, 24c 0.20 microM, Exp1-2, read-out: Percent HTRF Signal): 102% | remaining activity at […] (CaBdf1 BD1; CaBD1, 24c 0.51 microM, Exp1-2, read-out: Percent HTRF Signal): 96.9% | remaining activity at 1.28 µM (CaBdf1 BD1; CaBD1, 24c 1.28 microM, Exp1-2, read-out: Percent HTRF Signal): 99% | remaining activity at 3.2 µM (CaBdf1 BD1; CaBD1, 24c 3.20 microM, Exp1-2, read-out: Percent HTRF Signal): 90.4% | remaining activity at 8 µM (CaBdf1 BD1; CaBD1, 24c 8.00 microM, Exp1-2, read-out: Percent HTRF Signal): 85.5% | remaining activity at 20 µM (CaBdf1 BD1; CaBD1, 24c 20.00 microM, Exp1-2, read-out: Percent HTRF Signal): 73.3% | inhibition of Bdf1 BD1 from C. albicans (CaBdf1 BD1; HTRF, Fig S9C): weakly inhibited | pEC50 growth inhibition ([2]; strain BD1 Y-F, single experiments Exp1-3): 4.034 and 3.821 | pEC50 growth inhibition ([2]; strain BD2 Y-F, single experiments Exp1-3): 4.481 and 4.395 | pEC50 (WT BDF1) ([2]; Fig 2D, WT C. glabrata, single experiments Exp1-3): 4.014 and 4.016 | % Growth (OD at 600 nm) ([2]; WT BDF1, 6.25 microM): 98% and 99% and 101% | % Growth (OD at 600 nm) ([2]; WT BDF1, 12.5 microM): 95% and 97% and 99% | % Growth (OD at 600 nm) ([2]; WT BDF1, 25 microM): 88% and 91% and 95% | % Growth (OD at 600 nm) ([2]; WT BDF1, 50 microM): 65% and 71% and 69% | % Growth (OD at 600 nm) ([2]; WT BDF1, 100 microM): 44% and 45% and 46% | % Growth (OD at 600 nm) ([2]; bdf1-bd1Y166F, 6.25 microM): 99% and 101% and 98% | % Growth (OD at 600 nm) ([2]; bdf1-bd1Y166F, 12.5 microM): 102% and 92% and 98% | % Growth (OD at 600 nm) ([2]; bdf1-bd1Y166F, 25 microM): 92% and 82% and 97% | % Growth (OD at 600 nm) ([2]; bdf1-bd1Y166F, 50 microM): 88% and 74% and 81% | % Growth (OD at 600 nm) ([2]; bdf1-bd1Y166F, 100 microM): 50% and 44% and 56% | % Growth (OD at 600 nm) ([2]; bdf1-bd1Δ, 6.25 microM): 98% and 99% and 93% | % Growth (OD at 600 nm) ([2]; bdf1-bd1Δ, 12.5 microM): 93% and 98% and 97% | % Growth (OD at 600 nm) ([2]; bdf1-bd1Δ, 25 microM): 88% and 86% and 96% | % Growth (OD at 600 nm) ([2]; bdf1-bd1Δ, 50 microM): 78% and 74% and 87% | % Growth (OD at 600 nm) ([2]; bdf1-bd1Δ, 100 microM): 50% and 43% and 61% | % Growth (OD at 600 nm) ([2]; bdf1-bd2Y343F, 6.25 microM): 89% and 90% and 88% | % Growth (OD at 600 nm) ([2]; bdf1-bd2Y343F, 12.5 microM): 80% and 76% and 84% | % Growth (OD at 600 nm) ([2]; bdf1-bd2Y343F, 25 microM): 68% and 61% and 66% | % Growth (OD at 600 nm) ([2]; bdf1-bd2Y343F, 50 microM): 40% and 46% | % Growth (OD at 600 nm) ([2]; bdf1-bd2Y343F, 100 microM): 20% and 22% | % Growth (OD at 600 nm) ([2]; bdf1-bd2Δ, 6.25 microM): 68% and 85% | % Growth (OD at 600 nm) ([2]; bdf1-bd2Δ, 12.5 microM): 64% and 70% and 59% | % Growth (OD at 600 nm) ([2]; bdf1-bd2Δ, 25 microM): 40% and 63% and 41%
